# Laboratory results: article PMC4728661, “Cancer Prevention and Health Benefices of Traditionally Consumed Borago officinalis Plants” (Nutrients, 2016)
# Marks after values point to notes of the source that are not given here.
# Tests used:
# D. melanogaster [1] = assay: Toxicity: survival of Drosophila larvae to emerged adults, simple and combined (H2O2) treatments; format: in vivo, Drosophila melanogaster; conditions: H2O2 0.12 M alone (positive control)
# Method: Optimal fertile flies were anesthetized under CO2 narcotisation for cross selection and then placed in new vials for fertilization. After that, hybrid eggs from crossing were collected over an 8 h period and emerged larvae (72 ± 4 h later) were cleaned up for a few seconds in sterile distilled water to remove feeding medium rests. […] Bioactive compound concentrations were chosen on the basis of their known content in B. officinalis species. […] Larvae were fed on these media until pupation (about 48 h). After emergence, resulting adult flies were sacrificed under CO2 narcotisation and stored in a 70% ethanol solution in sterile water. […] The determination of Toxicity (T) of treatments in D. melanogaster was performed following this formula [39]: T = (N° of emerging individuals in treatment/N° of emerging individuals in the negative control) × 100(1) Differences in D. melanogaster survival between treatments at each concentration with respect to negative control were analyzed with a Chi-square test. This procedure was also performed for the analysis of each simple treatment with their correspondent combined treatment.
# D. melanogaster [2] = assay: Genotoxicity: Somatic Mutation and Recombination Test (SMART), wing spot test, simple treatments; format: in vivo, Drosophila melanogaster; conditions: H2O2 0.12 M alone (positive control); for Diagnosis, Small Single Spots 1–2 Cells m = 2: key: + (positive); − (negative); for Diagnosis, Total Spots m = 2: key: + (positive); − (negative)
# Method: The D. melanogaster system was selected for the determination of the safety of B. officinalis consumption as a well-recognized method to analyze vegetable complex mixtures using SMART [31, 32]. This test was used in order to evaluate the genotoxic and antigenotoxic activity of B. officinalis leaves and petioles as well as their selected bioactive compounds [33]. This activity was measured by direct visualization of the occurrence of recessive mutations in the wing hairs of two different D. melanogaster strains. Flies from experiments carried these visible wing genetic markers: the flare (flr) strain flr^3/ln (3LR) TM3, Bd^s and the multiple wing-hair (mwh) strain mwh/mwh. The marker flare (flr^3, 3_38.3) produces individual malformed hairs and the marker multiple wing hairs (mwh, 3_0.3) produces multiple hairs per cell. Larvae used in treatments come from two types of crosses: the standard cross with flr^3/TM3, Bd^S females mated to mwh/mwh males and the reciprocal cross.
# Optimal fertile flies were anesthetized under CO2 narcotisation for cross selection and then placed in new vials for fertilization. After that, hybrid eggs from crossing were collected over an 8 h period and emerged larvae (72 ± 4 h later) were cleaned up for a few seconds in sterile distilled water to remove feeding medium rests. For genotoxicity analysis (simple treatments), groups of 100 larvae were transferred into vials containing 0.85 g of Drosophila Instant Medium (Formula 4–24, Carolina Biological Supply, Burlington, NC, USA) wetted with 4 mL of a mixture of distilled water and increasing concentrations of samples: B. officinalis BF and WF (1.25, 2.5, and 5 mg·mL^−1), RO (0.35, 0.7, 1.39 and 2.78 mM), SY (0.16, 0.32, 0.63 and 1.26 mM), SI (0.15, 0.29, 0.58 and 1.16 mM) and the mixture of these three bioactive compounds at each concentration assayed individually. Bioactive compound concentrations were chosen on the basis of their known content in B. officinalis species. […] Larvae were fed on these media until pupation (about 48 h). After emergence, resulting adult flies were sacrificed under CO2 narcotisation and stored in a 70% ethanol solution in sterile water. Emerged adults were counted for toxicity evaluation and transheterozygous wings (mwh flr^+/mwh^+ flr^3) were mounted on microscope slides and wing hair mutations (spots) scored, using a photonic microscope (Nikon) at 400× magnification for genotoxicity and antigenotoxicity evaluation.
# For the evaluation of genotoxic effects, the frequencies of spots per fly of each treated series were compared to the concurrent negative control for each class of mutational clone as well as between simple and combined treatments for the same concentration comparisons. […] A multiple-decision procedure was used to categorize results as positive, inconclusive or negative. Inconclusive and positive results were evaluated by the non-parametric U test of Mann, Whitney and Wilcoxon. The inhibition percentage (IP) of genotoxicity was calculated from the total frequencies of spots per wing, following this formula [42]: IP = (genotoxin alone − sample + genotoxin) × 100/(genotoxin alone)(2)
compound,measurement,setting,value
"OO [H2O2, hydrogen peroxide, reference compound]",Survival,D. melanogaster [1],37.87 * %
same,"Diagnosis, Small Single Spots 1–2 Cells m = 2",D. melanogaster [2],+
same,"Diagnosis, Total Spots m = 2",D. melanogaster [2],+
same,"Mutation rate, Large Single Spots >2 Cells m = 5",D. melanogaster [2],0.07 (11) spots/wing
same,"Mutation rate, Small Single Spots 1–2 Cells m = 2",D. melanogaster [2],0.60 (94) spots/wing
same,"Mutation rate, Total Spots m = 2",D. melanogaster [2],0.65 (109) spots/wing
same,"Mutation rate, Twin Spots m = 5",D. melanogaster [2],0.06 (4) spots/wing
